Where a SMILES comes first, the peptide text is derived from it.
Biological target: T1, Interleukin-23 receptor (Homo sapiens, UniProt Q5VWK5)
T1 sequence (Q5VWK5 whole entry): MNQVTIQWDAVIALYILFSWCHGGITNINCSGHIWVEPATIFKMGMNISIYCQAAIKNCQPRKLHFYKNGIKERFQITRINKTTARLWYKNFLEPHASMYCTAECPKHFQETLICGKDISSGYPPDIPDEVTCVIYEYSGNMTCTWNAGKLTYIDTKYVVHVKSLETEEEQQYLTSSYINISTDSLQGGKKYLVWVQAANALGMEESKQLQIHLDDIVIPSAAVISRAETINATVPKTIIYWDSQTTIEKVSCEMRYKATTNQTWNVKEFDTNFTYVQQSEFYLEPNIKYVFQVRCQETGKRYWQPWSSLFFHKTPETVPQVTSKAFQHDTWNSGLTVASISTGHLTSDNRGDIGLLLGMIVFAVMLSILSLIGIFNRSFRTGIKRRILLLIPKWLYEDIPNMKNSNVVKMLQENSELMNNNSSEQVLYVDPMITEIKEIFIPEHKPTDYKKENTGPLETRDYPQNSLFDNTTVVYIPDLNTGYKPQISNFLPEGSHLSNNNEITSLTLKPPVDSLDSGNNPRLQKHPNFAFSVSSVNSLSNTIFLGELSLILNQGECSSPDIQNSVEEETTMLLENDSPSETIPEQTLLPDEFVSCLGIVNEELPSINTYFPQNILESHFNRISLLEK
Test: Inhibition of interleukin-23 binding to human interleukin-23 receptor incubated for 2 hrs by competitive binding ELISA

Row | Structure (SMILES) | IC50 [nM]
1 | CC(=O)NCCCC[C@H](NC(=O)[C@](C)(CCCCN)NC(=O)[C@H](Cc1ccc2ccccc2c1)NC(=O)[C@@H](NC(=O)[C@H](CCC(N)=O)NC(=O)[C@H](Cc1c[nH]c2ccccc12)NC(=O)[C@@H](NC(=O)[C@H](CCC(N)=O)NC(=O)[C@@H](NC(C)=O)C(C)(C)S)[C@@H](C)O)C(C)(C)S)C(=O)N[C@@H](CC(N)=O)C(=O)NCC(N)=O | > 10000
2 | CC(=O)N[C@@H](CS)C(=O)N[C@@H](CCC(N)=O)C(=O)N[C@H](C(=O)N[C@@H](Cc1c[nH]c2ccccc12)C(=O)N[C@@H](CCC(N)=O)C(=O)N[C@@H](CS)C(=O)N[C@@H](Cc1ccc(O)cc1)C(=O)N[C@@](C)(Cc1ccccc1)C(=O)N[C@@H](CCC(C)C)C(=O)N[C@@H](CCC(=O)O)C(=O)N[C@@H](CC(N)=O)C(=O)NCC(N)=O)[C@@H](C)O | 30000
3 | CC(=O)N[C@@H](CS)C(=O)N[C@@H](CCC(N)=O)C(=O)N[C@H](C(=O)N[C@@H](Cc1c[nH]c2ccccc12)C(=O)N[C@H](C(=O)N[C@@H](CS)C(=O)N[C@@H](Cc1ccc(O)cc1)C(=O)N[C@@H](Cc1c[nH]c2ccccc12)C(=O)N[C@@H](CCCNC(=N)N)C(=O)N[C@@H](CCC(=O)O)C(=O)N[C@@H](CC(N)=O)C(=O)NCC(=O)NCCOCC(=O)N[C@H](CCCCN)C(N)=O)C(C)C)[C@@H](C)O | < 500
4 | CC(C)[C@H](NC(=O)[C@H](Cc1c[nH]c2ccccc12)N(C)C(=O)[C@H](CC(=O)O)NC(=O)[C@H](C)NC(=O)[C@@H](N)CS)C(=O)N[C@@H](CS)C(=O)N[C@@H](Cc1ccc(O)cc1)C(=O)N[C@@H](Cc1cccc2ccccc12)C(=O)N[C@@H](Cc1cnc[nH]1)C(=O)N[C@H](C(=O)N[C@@H](Cc1ccccc1)C(=O)O)[C@@H](C)O | > 1000
5 | CC(C)[C@H](NC(=O)[C@H](Cc1ccc2ccccc2c1)NC(=O)[C@H](CC(=O)O)NC(=O)[C@H](C)NC(=O)[C@@H](N)CS)C(=O)N[C@@H](CS)C(=O)N[C@@H](Cc1ccc(O)cc1)C(=O)N[C@@H](Cc1c[nH]c2ccccc12)C(=O)N[C@@H](Cc1cnc[nH]1)C(=O)N[C@H](C(=O)N[C@@H](Cc1ccccc1)C(=O)NCC(N)=O)[C@@H](C)O | > 1000
6 | CC(=O)N[C@@H](CS)C(=O)N[C@@H](CCC(N)=O)C(=O)N[C@H](C(=O)N[C@@H](Cc1c[nH]c2ccccc12)C(=O)N[C@@H](CCC(N)=O)C(=O)N[C@@H](CS)C(=O)N[C@@H](Cc1ccc(O)cc1)C(=O)N[C@@H](Cc1c[nH]c2ccccc12)C(=O)N[C@@H](CCCNC(=N)N)C(=O)N[C@@H](CCCNC(=N)N)CC(=O)N[C@H](C(=O)N[C@@H](CC(N)=O)C(=O)NCC(=O)NCCOCC(=O)N[C@H](CCCCN)C(N)=O)C(C)C)[C@@H](C)O | 922
7 | CC(=O)N[C@@H](CS)C(=O)N[C@@H](CCCCN)C(=O)N[C@H](C(=O)N[C@@H](Cc1c[nH]c2ccccc12)C(=O)N[C@H](C(=O)N[C@@H](CS)C(=O)N[C@@H](Cc1ccc(O)cc1)C(=O)N[C@@H](Cc1c[nH]c2ccccc12)C(=O)N[C@@H](Cc1cnc[nH]1)C(=O)N[C@@H](CCC(=O)O)C(=O)N[C@@H](Cc1ccccc1)C(=O)NCC(N)=O)[C@@H](C)O)[C@@H](C)O (Ac-CKTWTCYWHEFG-NH2) | < 500
8 | CC(C)[C@H](NC(=O)[C@H](Cc1c[nH]c2ccccc12)NC(=O)[C@H](CC(=O)O)NC(=O)[C@H](C)NC(=O)[C@@H](N)CS)C(=O)N[C@@H](CS)C(=O)N[C@@H](Cc1ccc(O)cc1)C(=O)N[C@@H](Cc1c[nH]c2ccccc12)C(=O)N[C@@H](Cc1cnc[nH]1)C(=O)N[C@H](C(=O)N[C@@H](Cc1ccccc1)C(=O)NCC(=O)N[C@@H](CCCCNC(=O)COCC(=O)NCCCC[C@H](NC(=O)CNC(=O)[C@H](Cc1ccccc1)NC(=O)[C@@H](NC(=O)[C@H](Cc1cnc[nH]1)NC(=O)[C@H](Cc1c[nH]c2ccccc12)NC(=O)[C@H](Cc1ccc(O)cc1)NC(=O)[C@H](CS)NC(=O)[C@@H](NC(=O)[C@H](Cc1c[nH]c2ccccc12)NC(=O)[C@H](CC(=O)O)NC(=O)[C@H](C)NC(=O)[C@@H](N)CS)C(C)C)[C@@H](C)O)C(=O)O)C(=O)O)[C@@H](C)O | 1000 to 10000
9 | CC(C)[C@H](NC(=O)[C@H](Cc1c[nH]c2ccccc12)NC(=O)[C@H](CC(=O)O)NC(=O)[C@H](C)NC(=O)[C@@H](N)CS)C(=O)N[C@@H](CS)C(=O)N[C@@H](Cc1ccc(O)cc1)C(=O)N[C@@H](Cc1cccc2ccccc12)C(=O)N[C@@H](Cc1cnc[nH]1)C(=O)N[C@H](C(=O)N[C@H](Cc1ccccc1)C(=O)O)[C@@H](C)O | > 1000
10 | CC(=O)N[C@@H](CS)C(=O)N[C@@H](CCC(N)=O)C(=O)N[C@H](C(=O)N[C@@H](Cc1c[nH]c2ccccc12)C(=O)N[C@@H](CCC(N)=O)C(=O)N[C@@H](CS)C(=O)N[C@@H](Cc1ccc(O)cc1)C(=O)N[C@@H](Cc1c[nH]c2ccccc12)C(=O)N[C@@H](CC1CCCC1)C(=O)N[C@@H](CCC(=O)O)C(=O)N[C@@H](CC(N)=O)C(=O)NCC(=O)NCCOCC(=O)N[C@H](CCCCN)C(N)=O)[C@@H](C)O | < 500
11 | CC(=O)N[C@@H](C)C(=O)N[C@H](C(=O)N[C@@H](CC(=O)O)C(=O)N[C@@H](Cc1c[nH]c2ccccc12)C(=O)N[C@H](C(=O)N[C@H](C(=O)N[C@@H](Cc1ccc(O)cc1)C(=O)N[C@@H](Cc1c[nH]c2ccccc12)C(=O)N[C@@H](CCCNC(=N)N)C(=O)N[C@@H](CCCCN)C(=O)N[C@@H](Cc1ccccc1)C(=O)NCC(=O)NCCOCC(=O)N[C@H](CCCCN)C(N)=O)C(C)(C)S)C(C)C)C(C)(C)S | > 30000
12 | CC(C)[C@H](NC(=O)[C@H](Cc1cnc[nH]1)NC(=O)[C@H](Cc1c[nH]c2ccccc12)NC(=O)[C@H](Cc1ccc(O)cc1)NC(=O)[C@H](CS)NC(=O)[C@@H](NC(=O)[C@H](Cc1c[nH]c2ccccc12)NC(=O)[C@@H](NC(=O)[C@H](CCCNC(=N)N)NC(=O)[C@@H](N)CS)[C@@H](C)O)[C@@H](C)O)C(=O)N[C@@H](Cc1ccc(O)cc1)C(=O)NCC(N)=O (H-CRTWTCYWHVYG-NH2) | 500 to 1000
13 | CC(=O)N[C@@H](CS)C(=O)N[C@@H](CCC(N)=O)C(=O)N[C@H](C(=O)N[C@@H](Cc1c[nH]c2ccccc12)C(=O)N[C@@H](CCC(N)=O)C(=O)N[C@@H](CS)C(=O)N[C@H](Cc1ccc(O)cc1)C(=O)N[C@@H](Cc1c[nH]c2ccccc12)C(=O)N[C@@H](CCC(C)C)C(=O)N[C@@H](CCC(=O)O)C(=O)N[C@@H](CC(N)=O)C(=O)NCC(N)=O)[C@@H](C)O | > 30000

Next, values leading:

Row | IC50 [nM] | Structure (SMILES)
14 | < 500 | CC(=O)N[C@@H](CS)C(=O)N[C@@H](C)C(=O)N[C@@H](CC(=O)O)C(=O)N[C@@H](Cc1c[nH]c2ccccc12)C(=O)N[C@H](C(=O)N[C@@H](CS)C(=O)N[C@@H](Cc1ccc(O)cc1)C(=O)N[C@@H](Cc1c[nH]c2ccccc12)C(=O)N[C@@H](Cc1cnc[nH]1)C(=O)N[C@H](C(=O)N[C@@H](Cc1ccccc1)C(=O)NCC(=O)N[C@@H](C)C(=O)N[C@H](CCCCN)C(=O)O)[C@@H](C)O)C(C)C
15 | > 1000 | CC(C)[C@H](NC(=O)[C@H](Cc1cccc2ccccc12)NC(=O)[C@H](CC(=O)O)NC(=O)[C@H](C)NC(=O)[C@@H](N)CS)C(=O)N[C@@H](CS)C(=O)N[C@@H](Cc1ccc(O)cc1)C(=O)N[C@@H](Cc1c[nH]c2ccccc12)C(=O)N[C@@H](Cc1cnc[nH]1)C(=O)N[C@H](C(=O)N[C@@H](Cc1ccccc1)C(=O)NCC(N)=O)[C@@H](C)O
16 | > 1000 | CC(=O)N[C@@H](CS)C(=O)N[C@@H](C)C(=O)N[C@@H](CC(=O)O)C(=O)N[C@@H](Cc1c[nH]c2ccccc12)C(=O)N[C@H](C(=O)N[C@@H](CS)C(=O)N[C@@H](Cc1ccc(O)cc1)C(=O)N[C@@H](Cc1c[nH]c2ccccc12)C(=O)N[C@@H](Cc1cnc[nH]1)C(=O)N[C@@H](CCCNC(=N)N)C(=O)N[C@@H](CS)C(=O)NCC(=O)N[C@@H](Cc1c[nH]c2ccccc12)C(=O)N[C@@H](Cc1c[nH]c2ccccc12)C(=O)NCC(=O)N[C@@H](CS)C(N)=O)C(C)C (Ac-CADWVCYWHRCGWWGC-NH2)
17 | > 1000 | CC(=O)N[C@@H](CS)C(=O)N[C@@H](C)C(=O)N[C@@H](CC(=O)O)C(=O)N[C@@H](Cc1c[nH]c2ccccc12)C(=O)N[C@H](C(=O)N[C@@H](CS)C(=O)N[C@@H](Cc1ccc(O)cc1)C(=O)N[C@@H](Cc1c[nH]c2ccccc12)C(=O)N[C@@H](Cc1cnc[nH]1)C(=O)N[C@H](C(=O)N[C@@H](CCCCN)C(=O)NCC(=O)O)[C@@H](C)O)C(C)C
18 | 6000 | CCC(CC)(NC(=O)[C@H](CCCN)NC(=O)[C@H](Cc1c[nH]c2ccccc12)NC(=O)[C@H](Cc1ccc(O)cc1)NC(=O)[C@H](CS)NC(=O)[C@@H](NC(=O)[C@H](Cc1c[nH]c2ccccc12)NC(=O)[C@H](CC(=O)O)NC(=O)[C@H](C)NC(=O)[C@H](CS)NC(C)=O)C(C)C)C(=O)N[C@@H](Cc1ccccc1)C(=O)NCC(=O)NCCOCC(=O)N[C@H](CCCCN)C(N)=O
19 | < 500 | CC(=O)N[C@@H](CS)C(=O)N[C@@H](C)C(=O)N[C@@H](CC(=O)O)C(=O)N[C@@H](Cc1c[nH]c2ccccc12)C(=O)N[C@H](C(=O)N[C@@H](CS)C(=O)N[C@@H](Cc1ccc(O)cc1)C(=O)N[C@@H](Cc1c[nH]c2ccccc12)C(=O)N[C@@H](Cc1cnc[nH]1)C(=O)N[C@H](C(=O)N[C@@H](Cc1cnc[nH]1)C(=O)NCC(=O)N[C@@H](CCC(=O)O)C(=O)N[C@@H](CCCNC(=N)N)C(N)=O)[C@@H](C)O)C(C)C
